What all share (type): cell-based
One experiment deals with PC-3 cells. Briefly: CCK-8 in vitro cytotoxicity assay, PC-3. As to conditions: human prostate cancer cell line PC-3, CCK-8, 24 h exposure, mean ± SD of three experiments. The method, then: (§1) The synthesized target compounds 5 to 29 were evaluated for their in vitro cytotoxic activities against the three human prostate cancer cell lines (PC-3, LNCaP, and DU145), and compared with their effects on human prostate epithelial cell line RWPE-1 by CCK-8 assay.
(§2) PC-3 and RWPE-1 cells were cultured in Dulbecco’s modification Eagle’s medium (DMEM, Invitrogen, Carlsbad, CA, USA) supplemented with 10% fetal bovine serum (FBS, Hyclone, Logan, UT, USA), 100 U/mL penicillin and 0.1 mg/mL streptomycin (Invitrogen). DU145 cells were cultured in RPMI1640 media supplemented with 10% fetal bovine serum (FBS, Hyclone), 100 U/mL penicillin and 0.1 mg/mL streptomycin (Invitrogen). LNCaP cells were cultured in F12 media supplemented with 10% fetal bovine serum (FBS, Hyclone), 100 U/mL penicillin and 0.1 mg/mL streptomycin (Invitrogen). The cells were incubated at 37 °C in a humidified atmosphere with 5% CO2.
(§3) Cell proliferation was measured with the Cell Counting Kit-8 (CCK-8) assay kit (Dojindo Corp., Kumamoto, Japan). Cells were harvested during logarithmic growth phase and seeded in 96-well plates at a density of 1 × 10^5 cells/mL, and cultured at 37 °C in a humidified incubator (5% CO2) for 24 h, followed by exposure to various concentrations of compounds tested for 24 h. Subsequently 10 μL of CCK-8 (Dojindo) was added to each well, the cells were then incubated for an additional 1 h at 37 °C to convert WST-8 into formazan. Cell growth inhibition was determined by measuring the absorbance (Abs) at λ = 450 nm using amicroplate reader. Three independent experiments were performed. Cell growth inhibition was calculated according to the following equation: Growth inhibition = (1 − OD of treated cells/OD of control cells) × 100%
(§4) The half maximal inhibitory concentrations (IC50) were obtained from linear regression analysis of the concentration-response curves plotted for each tested compound.

The test system of a further experiment is LNCaP cells. In words: CCK-8 in vitro cytotoxicity assay, LNCaP. As to conditions: human prostate cancer cell line LNCaP, CCK-8, 24 h exposure, mean ± SD of three experiments. The method, then: as §1, §2, §3, §4
The next experiment deals with RWPE-1 cells. In words: CCK-8 in vitro cytotoxicity assay, RWPE-1 normal prostate epithelial cells. As to conditions: human prostate epithelial cell line RWPE-1 (normal), CCK-8, 24 h exposure, mean ± SD of three experiments. Here is the method:
as §1, §2, §3, §4

In another experiment the test system is DU145 cells. Briefly: CCK-8 in vitro cytotoxicity assay, DU145. As to conditions: DU-145; human prostate cancer cell line DU145, CCK-8, 24 h exposure, mean ± SD of three experiments. Here is the method:
as §1, §2, §3, §4

These results are taken from paper PMC6271825, “Synthesis and Cytotoxic Activity Evaluation of Novel Arylpiperazine Derivatives on Human Prostate Cancer Cell Lines” (Molecules, 2014).

For `FC(F)(F)c1ccccc1N1CCN(CCc2ccc(COc3ccc4c(c3)OCO4)cc2)CC1` [Compound 25, 1-(2-(4-((Benzo[d][1,3]dioxol-5-yloxy)methyl)phenyl)ethyl)-4-(2-(trifluoromethyl)phenyl)piperazine], the IC50 in the experiment with PC-3 cells was > 50 µM; in the experiment on LNCaP cells (Homo sapiens, LNCaP, 24 h), 32.96 ± 0.21 µM; in the experiment with RWPE-1 cells it was 18.9 ± 3.68 µM; in the experiment on DU145 cells, > 50 µM.

Turning to `c1ccc(CN2CCN(CCc3ccc(COc4ccc5c(c4)OCO5)cc3)CC2)cc1` [Compound 6, 1-(2-(4-((Benzo[d][1,3]dioxol-5-yloxy)methyl)phenyl)ethyl)-4-benzylpiperazine], the half-inhibitory concentration (IC50) in the experiment with PC-3 cells is > 50 µM; in the experiment with LNCaP cells (Homo sapiens, LNCaP, 24 h) it was 27.7 ± 4.17 µM; in the experiment with RWPE-1 cells, 38.8 ± 0.77 µM; with DU145 cells it was 28.9 ± 0.98 µM.

Turning to `CC(=O)c1ccc(N2CCN(CCc3ccc(COc4ccc5c(c4)OCO5)cc3)CC2)cc1` [Compound 27, 1-(4-(4-(2-(4-((Benzo[d][1,3]dioxol-5-yloxy)methyl)phenyl)ethyl)piperazin-1-yl)phenyl)ethanone], the half-maximal inhibitory concentration (IC50) in the experiment with PC-3 cells is 24.9 ± 0.68 µM; in the experiment on LNCaP cells (Homo sapiens, LNCaP, 24 h), > 50 µM; in the experiment on RWPE-1 cells, 26.8 ± 3.01 µM; in the experiment with DU145 cells, > 50 µM.

Take `Clc1ccc(N2CCN(CCc3ccc(COc4ccc5c(c4)OCO5)cc3)CC2)cc1` [Compound 20, 1-(2-(4-((Benzo[d][1,3]dioxol-5-yloxy)methyl)phenyl)ethyl)-4-(4-chlorophenyl)piperazine]: the IC50 in the experiment on PC-3 cells is > 50 µM; in the experiment with LNCaP cells (Homo sapiens, LNCaP, 24 h), > 50 µM; with RWPE-1 cells, > 50 µM; with DU145 cells it was > 50 µM.

Consider `Clc1cccc(N2CCN(CCc3ccc(COc4ccc5c(c4)OCO5)cc3)CC2)c1Cl` [Compound 22, 1-(2-(4-((Benzo[d][1,3]dioxol-5-yloxy)methyl)phenyl)ethyl)-4-(2,3-dichlorophenyl)piperazine], for which the IC50 with PC-3 cells was > 50 µM; in the experiment on LNCaP cells (Homo sapiens, LNCaP, 24 h) it was 39.4 ± 0.54 µM; in the experiment on RWPE-1 cells, > 50 µM; with DU145 cells, > 50 µM.

Turning to `COc1ccc(Cl)cc1N1CCN(CCc2ccc(COc3ccc4c(c3)OCO4)cc2)CC1` [Compound 23, 1-(2-(4-((Benzo[d][1,3]dioxol-5-yloxy)methyl)phenyl)ethyl)-4-(5-chloro-2-methoxyphenyl)piperazine], the 50% inhibitory concentration (IC50) was > 50 µM in the experiment with PC-3 cells; 33.2 ± 2.69 µM with LNCaP cells (Homo sapiens, LNCaP, 24 h); 35.9 ± 1.25 µM in the experiment on RWPE-1 cells; > 50 µM in the experiment with DU145 cells.

In the case of `c1ccc(N2CCN(CCc3ccc(COc4ccc5c(c4)OCO5)cc3)CC2)nc1` [Compound 7, 1-(2-(4-((Benzo[d][1,3]dioxol-5-yloxy)methyl)phenyl)ethyl)-4-(pyridin-2-yl)piperazine], the concentration for half-maximal inhibition (IC50) in the experiment with PC-3 cells is > 50 µM; in the experiment with LNCaP cells (Homo sapiens, LNCaP, 24 h), 31.2 ± 0.63 µM; in the experiment with RWPE-1 cells, 41.1 ± 0.54 µM; with DU145 cells, > 50 µM.

On to `COc1cccc(N2CCN(CCc3ccc(COc4ccc5c(c4)OCO5)cc3)CC2)c1` [Compound 14, 1-(2-(4-((Benzo[d][1,3]dioxol-5-yloxy)methyl)phenyl)ethyl)-4-(3-methoxyphenyl)piperazine], for which the IC50 was > 50 µM with PC-3 cells; > 50 µM with LNCaP cells (Homo sapiens, LNCaP, 24 h); 39 ± 0.77 µM in the experiment with RWPE-1 cells; > 50 µM in the experiment with DU145 cells.

As for `Fc1ccc(N2CCN(CCc3ccc(COc4ccc5c(c4)OCO5)cc3)CC2)c(F)c1` [Compound 17, 1-(2-(4-((Benzo[d][1,3]dioxol-5-yloxy)methyl)phenyl)ethyl)-4-(2,4-difluorophenyl)piperazine], the IC50 was > 50 µM in the experiment on PC-3 cells; 26.8 ± 1 µM in the experiment on LNCaP cells (Homo sapiens, LNCaP, 24 h); 23.9 ± 0.75 µM with RWPE-1 cells; 26.8 ± 0.92 µM in the experiment with DU145 cells.

For the molecule `FC(F)(F)c1ccc(N2CCN(CCc3ccc(COc4ccc5c(c4)OCO5)cc3)CC2)cc1` [Compound 26, 1-(2-(4-((Benzo[d][1,3]dioxol-5-yloxy)methyl)phenyl)ethyl)-4-(4-(trifluoromethyl)phenyl)piperazine], the IC50 in the experiment with PC-3 cells is > 50 µM; in the experiment with LNCaP cells (Homo sapiens, LNCaP, 24 h), 26.8 ± 1.51 µM; in the experiment with RWPE-1 cells, > 50 µM; in the experiment on DU145 cells, > 50 µM.

`COc1ccccc1N1CCN(CCc2ccc(COc3ccc4c(c3)OCO4)cc2)CC1` [Compound 12, 1-(2-(4-((Benzo[d][1,3]dioxol-5-yloxy)methyl)phenyl)ethyl)-4-(2-methoxyphenyl)piperazine]: the IC50 in the experiment with PC-3 cells was > 50 µM; in the experiment on LNCaP cells (Homo sapiens, LNCaP, 24 h) it was 30.7 ± 0.83 µM; with RWPE-1 cells, > 50 µM; in the experiment with DU145 cells, > 50 µM.

Consider `c1ccc(N2CCN(CCc3ccc(COc4ccc5c(c4)OCO5)cc3)CC2)cc1` [Compound 5, 1-(2-(4-((Benzo[d][1,3]dioxol-5-yloxy)methyl)phenyl)ethyl)-4-phenylpiperazine], for which the IC50 in the experiment on PC-3 cells was > 50 µM; in the experiment on LNCaP cells (Homo sapiens, LNCaP, 24 h) it was 27.9 ± 1.72 µM; in the experiment with RWPE-1 cells, > 50 µM; in the experiment on DU145 cells it was > 50 µM.

On to `Cc1ccc(N2CCN(CCc3ccc(COc4ccc5c(c4)OCO5)cc3)CC2)cc1` [Compound 10, 1-(2-(4-((Benzo[d][1,3]dioxol-5-yloxy)methyl)phenyl)ethyl)-4-p-tolylpiperazine], for which the IC50 in the experiment with PC-3 cells was > 50 µM; in the experiment with LNCaP cells (Homo sapiens, LNCaP, 24 h), 31.9 ± 0.89 µM; with RWPE-1 cells, > 50 µM; with DU145 cells, 47.8 ± 2.02 µM.

Take `COc1ccccc1N1CCN(CC(O)COc2cccc3ccccc23)CC1` (stereo not shown) [naftopidil, reference compound]: the IC50 was 42.1 ± 0.79 µM in the experiment with PC-3 cells; 22.4 ± 0.61 µM in the experiment with LNCaP cells (Homo sapiens, LNCaP, 24 h); > 50 µM with RWPE-1 cells; 34.58 ± 0.31 µM in the experiment on DU145 cells.

For `c1ccc(C2CCN(CCc3ccc(COc4ccc5c(c4)OCO5)cc3)CC2)cc1` [Compound 28, 1-(2-(4-((Benzo[d][1,3]dioxol-5-yloxy)methyl)phenyl)ethyl)-4-phenylpiperidine], the 50% inhibitory concentration (IC50) was > 50 µM with PC-3 cells; 18.2 ± 1.88 µM with LNCaP cells (Homo sapiens, LNCaP, 24 h); 28.5 ± 2.18 µM in the experiment with RWPE-1 cells; 24.7 ± 2.22 µM with DU145 cells.

In the case of `COc1ccc(N2CCN(CCc3ccc(COc4ccc5c(c4)OCO5)cc3)CC2)cc1` [Compound 13, 1-(2-(4-((Benzo[d][1,3]dioxol-5-yloxy)methyl)phenyl)ethyl)-4-(4-methoxyphenyl)piperazine], the IC50 in the experiment with PC-3 cells was > 50 µM; in the experiment with LNCaP cells (Homo sapiens, LNCaP, 24 h) it was 28.3 ± 0.49 µM; in the experiment on RWPE-1 cells, > 50 µM; in the experiment on DU145 cells, > 50 µM.

As for `Cc1ccccc1N1CCN(CCc2ccc(COc3ccc4c(c3)OCO4)cc2)CC1` [Compound 9, 1-(2-(4-((Benzo[d][1,3]dioxol-5-yloxy)methyl)phenyl)ethyl)-4-o-tolylpiperazine], the 50% inhibitory concentration (IC50) is > 50 µM in the experiment with PC-3 cells; < 5 µM in the experiment with LNCaP cells (Homo sapiens, LNCaP, 24 h); 3.47 ± 0.36 µM in the experiment on LNCaP cells; 31 ± 1.57 µM in the experiment on RWPE-1 cells; > 50 µM with DU145 cells.

With `Brc1ccc(N2CCN(CCc3ccc(COc4ccc5c(c4)OCO5)cc3)CC2)cc1` [Compound 24, 1-(2-(4-((Benzo[d][1,3]dioxol-5-yloxy)methyl)phenyl)ethyl)-4-(4-bromophenyl)piperazine], the IC50 with PC-3 cells was > 50 µM; in the experiment with LNCaP cells (Homo sapiens, LNCaP, 24 h) it was 19.9 ± 1.01 µM; with RWPE-1 cells, > 50 µM; in the experiment with DU145 cells, > 50 µM.

On to `Clc1cccc(N2CCN(CCc3ccc(COc4ccc5c(c4)OCO5)cc3)CC2)c1` [Compound 21, 1-(2-(4-((Benzo[d][1,3]dioxol-5-yloxy)methyl)phenyl)ethyl)-4-(3-chlorophenyl)piperazine], for which the IC50 in the experiment on PC-3 cells was > 50 µM; in the experiment on LNCaP cells (Homo sapiens, LNCaP, 24 h), 25.3 ± 1.55 µM; in the experiment with RWPE-1 cells, > 50 µM; in the experiment with DU145 cells, > 50 µM.

Take `Fc1ccc(N2CCN(CCc3ccc(COc4ccc5c(c4)OCO5)cc3)CC2)cc1` [Compound 16, 1-(2-(4-((Benzo[d][1,3]dioxol-5-yloxy)methyl)phenyl)ethyl)-4-(4-fluorophenyl)piperazine]: the IC50 in the experiment with PC-3 cells was > 50 µM; in the experiment on LNCaP cells (Homo sapiens, LNCaP, 24 h), 32.5 ± 1.04 µM; in the experiment on RWPE-1 cells, > 50 µM; with DU145 cells, > 50 µM.

As for `N#Cc1ccc(N2CCN(CCc3ccc(COc4ccc5c(c4)OCO5)cc3)CC2)c(F)c1` [Compound 18, 4-(4-(2-(4-((Benzo[d][1,3]dioxol-5-yloxy)methyl)phenyl)ethyl)piperazin-1-yl)-3-fluorobenzonitrile], the half-inhibitory concentration (IC50) in the experiment on PC-3 cells is 26.9 ± 1 µM; with LNCaP cells (Homo sapiens, LNCaP, 24 h), 13.1 ± 0.51 µM; in the experiment on RWPE-1 cells, > 50 µM; in the experiment on DU145 cells it was > 50 µM.

As to `Fc1ccccc1N1CCN(CCc2ccc(COc3ccc4c(c3)OCO4)cc2)CC1` [Compound 15, 1-(2-(4-((Benzo[d][1,3]dioxol-5-yloxy)methyl)phenyl)ethyl)-4-(2-fluorophenyl)piperazine], the IC50 was > 50 µM in the experiment with PC-3 cells, 41 ± 0.47 µM with RWPE-1 cells and > 50 µM in the experiment on DU145 cells.
